# Source: patent US9132084B2, “Methods for administration and formulations for the treatment of regional adipose tissue” (NEOTHETICS, INC., priority 2009, dated 2015)
# Test: Plasma pharmacokinetics following a single intravenous and subcutaneous injection of a combination of formoterol and budesonide
# Details: for AUC(0-inf): AUCinf; for bioavailability: F (bioavailability); for concentration at 0.0333 hr: male 1-0771, 0.0333 hr; for concentration at 0.0833 hr: male 1-0771, 0.0833 hr; for concentration at 0.167 hr: male 1-0771, 0.167 hr; for concentration at 0.333 hr: male 1-0771, 0.333 hr; for concentration at 0.5 hr: male 1-0771, 0.500 hr; for concentration at 0.75 hr: male 1-0771, 0.750 hr; for concentration at 1 hr: male 1-0771, 1.00 hr; for concentration at 2 hr: male 1-0771, 2.00 hr; for concentration at 4 hr: male 1-0771, 4.00 hr; for concentration at 8 hr: male 1-0771, 8.00 hr; for concentration at 24 hr: male 1-0771, 24.0 hr
# Method: Formoterol fumarate dehydrate and budesonide were formulated in 2% PEG-400 in saline. 1 male and 1 female non-naive Gottingen minipigs (8 to 12 kg upon receipt per protocol) were utilized. The animals were housed individually.
# Each minipig received a single IV injection of the combined formoterol and budesonide formulation followed by testing of the SC doses. Each dose was separated by at least a 3-day washout period. The IV dose was administered by slow bolus (1 minute; 0.017 hr) into the marginal ear vein, whereas the first SC dose was administered as a bolus injection along the back (neck-region) where there was a longitudinal fat depot. The second SC dose was distributed in 5 separate proximal SC injections separated by approximately 2 cm. Blood samples (approximately 4 mL) were collected via the branchiocephalic plexus at pre-dose and at 2, 5, 10, 20, 30 and 45 minutes, and at 1, 2, 4, 8 and 24 hr post-dose. Blood samples were placed in tubes containing K2-EDTA as the anticoagulant. Samples were processed to plasma by centrifugation and stored frozen at approximately −70° C. (+/−15° C.) until shipment for analysis.
# Plasma samples were analyzed for formoterol and budesonide using a qualified liquid chromatography/mass spectrometry/mass mass spectrometry (LC/MS/MS) method. The lower limit of quantitation (LLOQ) was 1.00 pg/mL for formoterol and 25.0 pg/mL for budesonide.
# Non-compartmental pharmacokinetic parameters were calculated using WinNonlin 5.2 software, NCA model 202, IV infusion input for the IV data and NCA model 200, extravascular input for the SC data. Individual plasma concentrations for each animal were used in the calculation of pharmacokinetic parameters. Nominal collection times and doses were used in the calculations. The area under the plasma concentration-time curve (AUC) was calculated using linear trapezoidal approximation (linear/log interpolation). Concentration values below the assay limit of quantitation were set to zero for calculations. The maximum plasma concentration (Cmax) and the time of its occurrence (Tmax) were verified by inspection. The half-life (t1/2) values were calculated using the last 3 plasma concentrations with nonzero values, if data permitted.
# [1] = male, Gottingen, minipig, in vivo, formoterol 0.4 μg/kg SC1 single site, combination, male 1-0771
# [2] = male, Gottingen, minipig, in vivo, formoterol 0.4 μg/kg SC5 (5 sites), combination, male 1-0771
# [3] = male, Gottingen, minipig, in vivo, Plasma concentration of formoterol, SC1 0.4 μg/kg, combination
# [4] = male, Gottingen, minipig, in vivo, Plasma concentration of formoterol, SC5 0.4 μg/kg, combination
# [5] = male, Gottingen, minipig, in vivo, iv, 0.4 ug/kg
# [6] = male, Gottingen, minipig, in vivo, iv, 0.4 ug/kg, formoterol 0.4 μg/kg IV in combination with budesonide, male 1-0771
# [7] = male, Gottingen, minipig, in vivo, iv, Plasma concentration of formoterol, IV 0.4 μg/kg, combination
structure (smiles),measurement,setting,value
"COc1ccc(CC(C)NCC(O)c2ccc(O)c(NC=O)c2)cc1 (centres unmarked) [Formoterol, formoterol]",tlast,"formoterol 0.4 μg/kg IV in combination with budesonide, male 1-0771",8.00 h
same,tlast,"formoterol 0.4 μg/kg SC1 single site, combination, female 2-0623",8.00 h
same,tlast,"formoterol 0.4 μg/kg SC1 single site, combination, male 1-0771",24.0 h
same,tlast,"formoterol 0.4 μg/kg SC5 (5 sites), combination, female 2-0623",24.0 h
same,tlast,"formoterol 0.4 μg/kg SC5 (5 sites), combination, male 1-0771",24.0 h
same,partition ratio (plasma Cmax subcutaneous / intravenous),formoterol with budesonide in about 2% PEG-400 in saline,0.5
same,AUC(0-inf),[1],0.627 ng·h/mL
same,AUC(0-inf),[2],0.579 ng·h/mL
same,Cmax,[1],0.378 ng/mL
same,Cmax,[2],0.217 ng/mL
same,bioavailability,[1],238%
same,bioavailability,[2],219%
same,concentration at 0 hr,"male, Gottingen, minipig, in vivo, Plasma concentration of formoterol, SC1 0.4 μg/kg, combination, male 1-0771, 0 hr",0.00463 ng/mL
same,concentration at 0.0333 hr,[3],0.378 ng/mL
same,concentration at 0.0833 hr,[3],0.294 ng/mL
same,concentration at 0.167 hr,[3],0.147 ng/mL
same,concentration at 0.333 hr,[3],0.121 ng/mL
same,concentration at 0.5 hr,[3],0.161 ng/mL
same,concentration at 0.75 hr,[3],0.079 ng/mL
same,concentration at 1 hr,[3],0.0833 ng/mL
same,concentration at 2 hr,[3],0.0822 ng/mL
same,concentration at 4 hr,[3],0.0422 ng/mL
same,concentration at 8 hr,[3],0.0152 ng/mL
same,concentration at 24 hr,[3],0.00287 ng/mL
same,concentration at 0.0333 hr,[4],0.133 ng/mL
same,concentration at 0.0833 hr,[4],0.216 ng/mL
same,concentration at 0.167 hr,[4],0.217 ng/mL
same,concentration at 0.333 hr,[4],0.15 ng/mL
same,concentration at 0.5 hr,[4],0.0938 ng/mL
same,concentration at 0.75 hr,[4],0.0941 ng/mL
same,concentration at 1 hr,[4],0.0801 ng/mL
same,concentration at 2 hr,[4],0.0711 ng/mL
same,concentration at 4 hr,[4],0.0359 ng/mL
same,concentration at 8 hr,[4],0.0181 ng/mL
same,concentration at 24 hr,[4],0.0013 ng/mL
same,Tmax,[1],0.0333 h
same,Tmax,[2],0.167 h
same,Vd,[5],3.94 L/kg
same,clearance,[5],25.3 mL/min/kg
same,AUC(0-inf),[6],0.264 ng·h/mL
same,Cmax,[6],0.41 ng/mL
same,Tmax,[6],0.0333 h
same,half-life,"male, Gottingen, minipig, in vivo, iv, 0.4 ug/kg, t1/2, formoterol 0.4 μg/kg IV in combination with budesonide, male 1-0771",2.54 h
same,concentration at 0.0333 hr,[7],0.41 ng/mL
same,concentration at 0.0833 hr,[7],0.0996 ng/mL
same,concentration at 0.167 hr,[7],0.0902 ng/mL
same,concentration at 0.333 hr,[7],0.0689 ng/mL
same,concentration at 0.5 hr,[7],0.057 ng/mL
same,concentration at 0.75 hr,[7],0.0488 ng/mL
same,concentration at 1 hr,[7],0.0813 ng/mL
same,concentration at 2 hr,[7],0.0265 ng/mL
same,concentration at 4 hr,[7],0.0183 ng/mL
same,concentration at 8 hr,[7],0.00533 ng/mL
same,half-life,"male, Gottingen, minipig, in vivo, t1/2, formoterol 0.4 μg/kg SC1 single site, combination, male 1-0771",5.51 h
same,half-life,"male, Gottingen, minipig, in vivo, t1/2, formoterol 0.4 μg/kg SC5 (5 sites), combination, male 1-0771",4.19 h
same,absorption after SC administration,"single site and divided over 5 sites, combination",well absorbed
